Measurements: patent US10882860B2, “Treatment of osteoarthritis” (Samumed, LLC, priority 2015, dated 2021)
≈ marks a conversion by molar mass, not a printed value. Where two headings read alike, the source gives them in different places. Marks after values point to notes of the source that are not given here.

Assays:
Format in all cases: physicochemical
[1] = Competitive slurry experiments between polymorph forms (thermodynamic stability); settings: for most stable form in competitive slurry: 15 forms mixed (10 mg each), RT and 50° C., 3-5 days
Experimental: In order to find out the thermodynamic stability between the different forms, several competitive slurry experiments were carried out. Form 1, Form 2, Form 2*, Form 3, Form 4, Form 4*, Form 4**, Form 5, Form 7, Form 8, Form 9, Form 10, Form 11, Form 11*, and Form 13 (10 mg for each) was mixed and slurried in 2 mL of solvent at both RT and 50° C. The solids were slurried for 3-5 days and then analyzed by XRD.
In order to find out the thermodynamic stability between Form 13 and Form 9, several competitive slurry experiments were carried out. 15 mg of Form 1, Form 9 and Form 13 solid were mixed in 1 mL of toluene, IPAc, and n-butyl acetate, and slurried for 3 days at RT and 50° C.
The residual solid was analyzed by XRD.

[2] = Dynamic vapor sorption (DVS) and exposure to humidity/air of solid forms
Experimental: The hydrate lost its water below 30% RH.
The purity of the Form 13 sample was 98.8%; the KF of an undried Form 13 sample was 35.7%.
Solvates 1 and 2 solids were exposed to air overnight, and then analyzed by XRD. After the analysis, the solids were dried at 50° C. under vacuum, and then analyzed by XRD again.

[3] = Solubility of the starting solid by the gravimetric method; settings: for solubility: thermodynamic from solid
[4] = Slurry experiments in various solvents (polymorph screen)
Experimental: Slurry experiments in various solvents were performed. Approximately 30-80 mg of the starting solid (a non-stoichiometric hydrate of Form 1 having between 1% and about 20% by weight water) was slurried in 39 different solvents (pure and binary solvents; the ratio of organic solvent/water (V/V) was 95%/5%) at RT and 50° C. for 5 days. Three solvates, […], and eleven non-solvated forms were identified. […] XRD of both wet and dry samples were scanned (FIG. 12A (dry sample)).
The slurry experiments identified 3 solvated forms from wet samples (Solvates 1, 2, and 3); 2 non-stoichiometric hydrates of Form 1 (Forms 12 and 13); and 11 non-solvated forms (Forms 1-11). In some instances, similar XRD scans with minor differences were obtained. These were considered to be part of the same class (e.g., the same form). For example, XRD scans of Form 2 and Form 2* were similar and were considered to belong to the same class. The solvated forms were obtained from wet sample analysis; after drying, the sample indicated a different XRD.

[5] = slurry in DMF/water (5% water), 50° C.
[6] = slurry in DMF/water (5% water), RT
[7] = slurry in EtOH/water (5% water), 50° C.
[8] = slurry in n-Butyl acetate, 50° C.
[9] = slurry in n-Propanol/water (5% water), 50° C.
[10] = slurry in DMSO/water (5% water), 50° C.
[11] = slurry in DMSO/water (5% water), RT

CC(C)CC(=O)Nc1cncc(-c2ccc3[nH]nc(-c4nc5c(-c6cccc(F)c6)cncc5[nH]4)c3c2)c1 [Form 1, Form 9 and Form 13]
Form after 3 days; wet/dry ([1]; 50° C., IPAc): Form 9/Form 9
Form after 3 days; wet/dry ([1]; 50° C., Toluene): Form 9 + Form 13/Form 9 + Form 1
Form after 3 days; wet/dry ([1]; 50° C., n-Butyl acetate): Form 9 + Form 13/Form 9 + Form 1
Form after 3 days; wet/dry ([1]; RT, IPAc): Form 9 + Form 13/Form 9 + Form 1
Form after 3 days; wet/dry ([1]; RT, Toluene): Form 13/Form 1
Form after 3 days; wet/dry ([1]; RT, n-Butyl acetate): Form 9 + Form 13/Form 9 + Form 1

CC(C)CC(=O)Nc1cncc(-c2ccc3[nH]nc(-c4nc5c(-c6cccc(F)c6)cncc5[nH]4)c3c2)c1 [Form 13]
most stable form in competitive slurry ([1]; water): most stable

CC(C)CC(=O)Nc1cncc(-c2ccc3[nH]nc(-c4nc5c(-c6cccc(F)c6)cncc5[nH]4)c3c2)c1 [Form 1]
form change when exposed to air ([2]; exposed to air): converts to Form 13

CC(C)CC(=O)Nc1cncc(-c2ccc3[nH]nc(-c4nc5c(-c6cccc(F)c6)cncc5[nH]4)c3c2)c1 [starting solid]
Solubility (gravimetric method) ([3]; RT and 50° C., all solvents tested except DMF and DMSO): low solubility
solubility ([3]; organic solvent or mixture, Acetic acid, 50° C., read-out: Solubility at 50° C.): 3000 µg/mL (≈ 5930 µM)
solubility ([3]; organic solvent or mixture, Acetone, 50° C., read-out: Solubility at 50° C.): 1000 µg/mL (≈ 1980 µM)
solubility ([3]; organic solvent or mixture, Acetone, RT, read-out: Solubility at RT): 1000 µg/mL (≈ 1980 µM)
solubility ([3]; organic solvent or mixture, DCM, 50° C., read-out: Solubility at 50° C.): 2000 µg/mL (≈ 3960 µM)
solubility ([3]; organic solvent or mixture, DCM, RT, read-out: Solubility at RT): 2000 µg/mL (≈ 3960 µM)
solubility ([3]; organic solvent or mixture, DMF, 50° C., read-out: Solubility at 50° C.): 16000 µg/mL (≈ 31600 µM)
solubility ([3]; organic solvent or mixture, DMF, RT, read-out: Solubility at RT): 12000 µg/mL (≈ 23700 µM)
solubility ([3]; organic solvent or mixture, EA, 50° C., read-out: Solubility at 50° C.): 1000 µg/mL (≈ 1980 µM)
solubility ([3]; organic solvent or mixture, EA, RT, read-out: Solubility at RT): 1000 µg/mL (≈ 1980 µM)
solubility ([3]; organic solvent or mixture, EtOH, 50° C., read-out: Solubility at 50° C.): 2000 µg/mL (≈ 3960 µM)
solubility ([3]; organic solvent or mixture, EtOH, RT, read-out: Solubility at RT): 2000 µg/mL (≈ 3960 µM)
solubility ([3]; organic solvent or mixture, IPA, 50° C., read-out: Solubility at 50° C.): 5000 µg/mL (≈ 9890 µM)
solubility ([3]; organic solvent or mixture, IPA, RT, read-out: Solubility at RT): 2000 µg/mL (≈ 3960 µM)
solubility ([3]; organic solvent or mixture, MEK, 50° C., read-out: Solubility at 50° C.): 1000 µg/mL (≈ 1980 µM)
solubility ([3]; organic solvent or mixture, MEK, RT, read-out: Solubility at RT): 1000 µg/mL (≈ 1980 µM)
solubility ([3]; organic solvent or mixture, MIBK, 50° C., read-out: Solubility at 50° C.): 1000 µg/mL (≈ 1980 µM)
solubility ([3]; organic solvent or mixture, MIBK, RT, read-out: Solubility at RT): 1000 µg/mL (≈ 1980 µM)
solubility ([3]; organic solvent or mixture, MeOH, 50° C., read-out: Solubility at 50° C.): 1000 µg/mL (≈ 1980 µM)
solubility ([3]; organic solvent or mixture, MeOH, RT, read-out: Solubility at RT): 1000 µg/mL (≈ 1980 µM)
solubility ([3]; organic solvent or mixture, Toluene, 50° C., read-out: Solubility at 50° C.): 1000 µg/mL (≈ 1980 µM)
solubility ([3]; organic solvent or mixture, Toluene, RT, read-out: Solubility at RT): 1000 µg/mL (≈ 1980 µM)
solubility ([3]; organic solvent or mixture, n-Butanol, 50° C., read-out: Solubility at 50° C.): 2000 µg/mL (≈ 3960 µM)
solubility ([3]; organic solvent or mixture, n-Butanol, RT, read-out: Solubility at RT): 1000 µg/mL (≈ 1980 µM)
solubility ([3]; organic solvent or mixture, n-Propanol, 50° C., read-out: Solubility at 50° C.): 2000 µg/mL (≈ 3960 µM)
solubility ([3]; organic solvent or mixture, n-Propanol, RT, read-out: Solubility at RT): 1000 µg/mL (≈ 1980 µM)
solubility ([3]; water, 50° C., read-out: Solubility at 50° C.): 1000 µg/mL (≈ 1980 µM)
solubility ([3]; water, RT, read-out: Solubility at RT): 1000 µg/mL (≈ 1980 µM)

CC(C)CC(=O)Nc1cncc(-c2ccc3[nH]nc(-c4nc5c(-c6cccc(F)c6)cncc5[nH]4)c3c2)c1 [Form 11]
Dry (solid form by XRD after slurry) ([4]; slurry in DMF, 50° C.): Form 11*
Wet (solid form by XRD after slurry) ([4]; slurry in DMF, 50° C.): Form 11
Dry (solid form by XRD after slurry) ([4]; slurry in DMF, RT): Form 11
Wet (solid form by XRD after slurry) ([4]; slurry in DMF, RT): Form 11
Dry (solid form by XRD after slurry) [4, 5]: Form 11
Wet (solid form by XRD after slurry) [4, 5]: Form 11
Dry (solid form by XRD after slurry) [4, 6]: Form 11
Wet (solid form by XRD after slurry) [4, 6]: Form 11

CC(C)CC(=O)Nc1cncc(-c2ccc3[nH]nc(-c4nc5c(-c6cccc(F)c6)cncc5[nH]4)c3c2)c1 [Form 9]
Dry (solid form by XRD after slurry) [4, 7]: Form 9
Wet (solid form by XRD after slurry) [4, 7]: Form 9
Dry (solid form by XRD after slurry) ([4]; slurry in IPAc, 50° C.): Form 9
Wet (solid form by XRD after slurry) ([4]; slurry in IPAc, 50° C.): Form 9
Dry (solid form by XRD after slurry) ([4]; slurry in n-Butanol, 50° C.): Form 9
Wet (solid form by XRD after slurry) ([4]; slurry in n-Butanol, 50° C.): Form 9
Dry (solid form by XRD after slurry) ([4]; slurry in n-Butanol, RT): Form 9
Wet (solid form by XRD after slurry) ([4]; slurry in n-Butanol, RT): Form 9
Dry (solid form by XRD after slurry) [4, 8]: Form 9
Wet (solid form by XRD after slurry) [4, 8]: Form 9
Dry (solid form by XRD after slurry) [4, 9]: Form 9
Wet (solid form by XRD after slurry) [4, 9]: Form 9
change of form before and after the DVS scan ([2]; XRD before/after DVS): did not change its form

CC(C)CC(=O)Nc1cncc(-c2ccc3[nH]nc(-c4nc5c(-c6cccc(F)c6)cncc5[nH]4)c3c2)c1 [Form 4]
most stable form in competitive slurry ([1]; EA): most stable

CC(C)CC(=O)Nc1cncc(-c2ccc3[nH]nc(-c4nc5c(-c6cccc(F)c6)cncc5[nH]4)c3c2)c1 [Form 10]
Dry (solid form by XRD after slurry) ([4]; slurry in DMSO, 50° C.): Form 10*
Wet (solid form by XRD after slurry) ([4]; slurry in DMSO, 50° C.): amorphous
Dry (solid form by XRD after slurry) ([4]; slurry in DMSO, RT): Form 10
Wet (solid form by XRD after slurry) ([4]; slurry in DMSO, RT): amorphous
Dry (solid form by XRD after slurry) [4, 10]: Form 10
Wet (solid form by XRD after slurry) [4, 10]: amorphous
Dry (solid form by XRD after slurry) [4, 11]: Form 10
Wet (solid form by XRD after slurry) [4, 11]: amorphous

CC(C)CC(=O)Nc1cncc(-c2ccc3[nH]nc(-c4nc5c(-c6cccc(F)c6)cncc5[nH]4)c3c2)c1 [Solvate 1]
form change after exposure to air overnight (XRD) [2]: converted to low crystallinity

CC(C)CC(=O)Nc1cncc(-c2ccc3[nH]nc(-c4nc5c(-c6cccc(F)c6)cncc5[nH]4)c3c2)c1 [Solvate 2]
form change after exposure to air overnight (XRD) [2]: changed a little
